The values that follow come from patent US11447466B2, “Substituted indole compounds useful as inhibitors of TLR7/8/9” (BRISTOL-MYERS SQUIBB COMPANY, priority 2017, dated 2022).

What all share (format): cell-based
Assay [1] addresses T1, human TLR7 (Homo sapiens, UniProt Q9NYK1).
T1 construct: host or cells: HEK-Blue cells
T1 sequence (Q9NYK1 27-1049): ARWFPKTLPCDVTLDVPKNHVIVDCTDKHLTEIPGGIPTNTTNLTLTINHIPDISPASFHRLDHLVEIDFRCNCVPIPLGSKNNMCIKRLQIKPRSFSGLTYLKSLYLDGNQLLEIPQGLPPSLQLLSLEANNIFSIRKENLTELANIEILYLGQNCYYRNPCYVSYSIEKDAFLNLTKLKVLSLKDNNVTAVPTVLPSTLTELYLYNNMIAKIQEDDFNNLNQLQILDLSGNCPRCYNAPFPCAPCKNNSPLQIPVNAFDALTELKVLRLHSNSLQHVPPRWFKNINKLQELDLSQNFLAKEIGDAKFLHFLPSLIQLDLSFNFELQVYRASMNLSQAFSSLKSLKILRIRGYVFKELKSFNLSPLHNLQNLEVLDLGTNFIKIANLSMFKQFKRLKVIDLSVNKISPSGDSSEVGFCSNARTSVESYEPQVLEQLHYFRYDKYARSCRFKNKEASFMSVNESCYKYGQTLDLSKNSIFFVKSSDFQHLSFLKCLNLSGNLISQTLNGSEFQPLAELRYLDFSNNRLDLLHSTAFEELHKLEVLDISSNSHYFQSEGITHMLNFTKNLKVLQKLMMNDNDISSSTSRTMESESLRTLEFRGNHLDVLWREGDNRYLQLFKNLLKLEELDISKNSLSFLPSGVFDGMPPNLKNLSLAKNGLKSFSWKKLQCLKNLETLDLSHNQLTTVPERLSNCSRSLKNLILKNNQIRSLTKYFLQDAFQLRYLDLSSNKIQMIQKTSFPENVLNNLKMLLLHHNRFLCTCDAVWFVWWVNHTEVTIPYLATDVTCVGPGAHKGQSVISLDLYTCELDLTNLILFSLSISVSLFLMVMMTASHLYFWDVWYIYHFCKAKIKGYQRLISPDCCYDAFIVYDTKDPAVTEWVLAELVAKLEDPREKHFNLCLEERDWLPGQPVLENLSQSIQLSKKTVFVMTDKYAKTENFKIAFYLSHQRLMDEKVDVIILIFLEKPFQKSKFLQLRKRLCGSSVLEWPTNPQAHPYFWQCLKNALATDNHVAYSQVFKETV
Nature of the assay: TLR7 inhibition reporter assay (HEK-Blue SEAP reporter, gardiquimod stimulation). To be noted: HEK-Blue cells overexpressing human TLR7, SEAP reporter, gardiquimod 7.5 μM, 22 hour incubation. An outline of the steps:
(§1)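 Compound treatment: 30 min, RT, 0.05 nM–50 μM final. Agonist: TLR7 gardiquimod 7.5 μM; TLR8 R848 15.9 μM; TLR9 ODN2006 5 nM. Incubation 22 h, 37 °C, 5% CO2. Readout SEAP, HEK-Blue Detection.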
(In general: In a reporter assay the amount or activity of a reporter protein is the signal.)

Assay [2] addresses T2, human TLR8 (Homo sapiens, UniProt Q9NR97).
T2 construct: host or cells: HEK-Blue cells
T2 sequence (Q9NR97 27-1041): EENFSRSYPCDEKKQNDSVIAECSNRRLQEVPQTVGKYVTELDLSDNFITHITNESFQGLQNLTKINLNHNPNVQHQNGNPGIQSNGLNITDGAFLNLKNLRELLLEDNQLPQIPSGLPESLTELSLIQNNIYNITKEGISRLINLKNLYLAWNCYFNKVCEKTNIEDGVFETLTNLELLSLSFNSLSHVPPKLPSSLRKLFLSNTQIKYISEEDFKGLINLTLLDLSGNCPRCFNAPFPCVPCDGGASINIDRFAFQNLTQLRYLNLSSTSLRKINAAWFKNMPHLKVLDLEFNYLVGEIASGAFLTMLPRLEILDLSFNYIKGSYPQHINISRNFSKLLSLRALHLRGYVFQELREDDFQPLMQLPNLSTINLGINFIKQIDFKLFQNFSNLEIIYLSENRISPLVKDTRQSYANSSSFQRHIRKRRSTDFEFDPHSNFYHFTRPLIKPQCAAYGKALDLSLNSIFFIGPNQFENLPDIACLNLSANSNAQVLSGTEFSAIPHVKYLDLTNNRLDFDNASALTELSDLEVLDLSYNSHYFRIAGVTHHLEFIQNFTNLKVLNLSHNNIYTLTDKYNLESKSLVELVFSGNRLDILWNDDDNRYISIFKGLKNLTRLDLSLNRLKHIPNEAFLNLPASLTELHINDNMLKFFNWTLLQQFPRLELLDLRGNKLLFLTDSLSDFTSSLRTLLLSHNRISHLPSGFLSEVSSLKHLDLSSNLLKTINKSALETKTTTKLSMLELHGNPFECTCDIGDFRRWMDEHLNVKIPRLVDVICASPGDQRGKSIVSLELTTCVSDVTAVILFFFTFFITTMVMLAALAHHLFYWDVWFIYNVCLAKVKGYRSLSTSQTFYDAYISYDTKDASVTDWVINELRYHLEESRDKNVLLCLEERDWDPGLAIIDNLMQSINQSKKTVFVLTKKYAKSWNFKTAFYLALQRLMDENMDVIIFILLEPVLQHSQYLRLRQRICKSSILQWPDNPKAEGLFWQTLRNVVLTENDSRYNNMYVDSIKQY
The assay can be described thus: TLR8 inhibition reporter assay (HEK-Blue SEAP reporter, R848 stimulation). To be noted: HEK-Blue cells overexpressing human TLR8, SEAP reporter, R848 15.9 μM, 22 hour incubation. Put shortly:
as §1

Assay [3] deals with T3, human TLR9 (Homo sapiens, UniProt Q9NR96).
T3 construct: host or cells: HEK-Blue cells
T3 sequence (Q9NR96 26-1032): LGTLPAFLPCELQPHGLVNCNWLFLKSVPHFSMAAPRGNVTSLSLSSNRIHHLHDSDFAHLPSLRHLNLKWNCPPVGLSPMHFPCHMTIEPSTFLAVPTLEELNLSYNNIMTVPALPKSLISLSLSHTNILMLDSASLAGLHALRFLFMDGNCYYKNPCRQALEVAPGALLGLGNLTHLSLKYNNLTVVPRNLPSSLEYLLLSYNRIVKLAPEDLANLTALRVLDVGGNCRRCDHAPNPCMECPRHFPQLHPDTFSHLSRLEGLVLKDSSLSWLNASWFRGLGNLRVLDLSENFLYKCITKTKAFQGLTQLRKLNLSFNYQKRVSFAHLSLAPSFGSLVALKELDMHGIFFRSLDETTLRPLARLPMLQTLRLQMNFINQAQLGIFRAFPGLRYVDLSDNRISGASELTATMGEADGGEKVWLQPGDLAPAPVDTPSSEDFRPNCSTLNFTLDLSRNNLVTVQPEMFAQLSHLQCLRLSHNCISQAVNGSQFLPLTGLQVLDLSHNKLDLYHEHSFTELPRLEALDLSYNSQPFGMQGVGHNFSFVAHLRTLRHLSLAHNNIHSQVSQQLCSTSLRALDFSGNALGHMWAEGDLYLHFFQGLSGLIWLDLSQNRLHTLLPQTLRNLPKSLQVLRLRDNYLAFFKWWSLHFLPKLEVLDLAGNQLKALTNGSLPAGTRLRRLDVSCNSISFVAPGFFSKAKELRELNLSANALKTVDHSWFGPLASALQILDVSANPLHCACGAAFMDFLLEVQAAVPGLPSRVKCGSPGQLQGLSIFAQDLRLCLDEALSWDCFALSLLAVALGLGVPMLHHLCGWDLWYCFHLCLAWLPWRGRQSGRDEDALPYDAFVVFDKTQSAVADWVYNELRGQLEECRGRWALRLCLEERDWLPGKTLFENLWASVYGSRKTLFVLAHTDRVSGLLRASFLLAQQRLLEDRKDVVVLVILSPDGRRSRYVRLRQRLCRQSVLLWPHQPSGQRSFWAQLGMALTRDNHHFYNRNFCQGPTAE
Nature of the assay: TLR9 inhibition reporter assay (HEK-Blue SEAP reporter, ODN2006 stimulation). The conditions noted are these: HEK-Blue cells overexpressing human TLR9, SEAP reporter, ODN2006 5 nM, 22 hour incubation. The protocol:
TLR7/8/9 Inhibition Reporter Assays
HEK-Blue™-cells (Invivogen) overexpressing human TLR7, TLR8 or TLR9 receptors were used for screening inhibitors of these receptors using an inducible SEAP (secreted embryonic alkaline phosphatase) reporter gene under the control of the IFN-β minimal promoter fused to five NF-κB and AP-1-binding sites. Briefly, cells are seeded into Greiner 384 well plates (15000 cells per well for TLR7, 20,000 for TLR8 and 25,000 for TLR9) and then treated with test compounds in DMSO to yield a final dose response concentration range of 0.05 nM-50 μM. After a 30 minute compound pre-treatment at room temperature, the cells are then stimulated with a TLR7 ligand (gardiquimod at a final concentration of 7.5 μM), TLR8 ligand (R848 at a final concentration of 15.9 μM) or TLR9 ligand (ODN2006 at a final concentration of 5 nM) to activate NF-κB and AP-1 which induce the production of SEAP. After a 22 hour incubation at 37° C., 5% CO2, SEAP levels are determined with the addition of HEK-Blue™ Detection reagent (Invivogen), a cell culture medium that allows for detection of SEAP, according to manufacturer's specifications. The percent inhibition is determined as the % reduction in the HEK-Blue signal present in wells treated with agonist plus DMSO alone compared to wells treated with a known inhibitor.

A word on the IC50: it is the concentration needed to halve the response being measured. A high value points to weaker potency in that assay. Consider `Cc1cc(-c2[nH]c3ccc(C4CCN(CC(=O)N5CCC(=O)N5)CC4)cc3c2C(C)C)cn(C)c1=O` [Example 121, 5-(3-isopropyl-5-(1-(2-oxo-2-(3-oxopyrazolidin-1-yl)ethyl)piperidin-4-yl)-1H-indol-2-yl)-1,3-dimethylpyridin-2(1H)-one], for which the figures for the IC50 in assay [1], in assay [2] and in assay [3] were 0.0407 µM, 0.102 µM and not below 50 µM, respectively.
The corresponding values for `COc1c(C)c(-c2[nH]c3ccc(C4CCNCC4)cc3c2C(C)C)cn(C)c1=O` [Example 29, 5-(3-isopropyl-5-(piperidin-4-yl)-1H-indol-2-yl)-3-methoxy-1,4-dimethylpyridin-2(1H)-one] are 0.0141 µM, 0.0509 µM and 0.783 µM.
On the same counts, the results for `Cc1c(-c2[nH]c3ccc(C4CCNCC4)cc3c2C(C)C)cn(C)c(=O)c1-c1cccnc1` [Example 65, 5-(3-isopropyl-5-(piperidin-4-yl)-1H-indol-2-yl)-1,4-dimethyl-[3,3′-bipyridin]-2(1H)-one] are 0.976 µM, 0.0751 µM and 3.1 µM.
The corresponding values for `CC(C)c1c(-c2cc(-c3cccnc3)c(=O)n(C)c2)[nH]c2ccc(C3CCN(CC(=O)N(C)C)CC3)cc12` [Example 169, 2-(4-(3-isopropyl-2-(1-methyl-2-oxo-1,2-dihydro-[3,3′-bipyridin]-5-yl)-1H-indol-5-yl)piperidin-1-yl)-N,N-dimethylacetamide] are 0.0119 µM, 0.0062 µM and 1.8 µM.
In the case of `Cc1c(-c2[nH]c3ccc(C4CCNCC4)cc3c2C(C)C)cn(C)c(=O)c1C#N` [Example 24, 5-(3-isopropyl-5-(piperidin-4-yl)-1H-indol-2-yl)-1,4-dimethyl-2-oxo-1,2-dihydropyridine-3-carbonitrile], the IC50 was determined as 0.0759 µM in assay [1], 0.0107 µM in assay [2] and 3.76 µM in assay [3].
The corresponding values for `Cc1cc(-c2[nH]c3ccc(C4CCNCC4)cc3c2C(C)C)cn(C)c1=O` [Example 2, 5-(3-isopropyl-5-(piperidin-4-yl)-1H-indol-2-yl)-1,3-dimethylpyridin-2(1H)-one] are 0.0016 µM, 0.0051 µM and 4.33 µM.
For the compound `Cc1c(-c2[nH]c3ccc(C4CCN(C5COC5)CC4)cc3c2C(C)C)cn(C)c(=O)c1C#N` [Example 221, 5-(3-isopropyl-5-(1-(oxetan-3-yl)piperidin-4-yl)-1H-indol-2-yl)-1,4-dimethyl-2-oxo-1,2-dihydropyridine-3-carbonitrile], the values for the half-maximal inhibitory concentration (IC50) in assay [1], in assay [2] and in assay [3] were 0.067 µM, 0.0093 µM and 25.4 µM, respectively.
The corresponding values for `Cc1cc(-c2[nH]c3ccc(C4CCN(C5COC5)CC4)cc3c2C(C)C)cn(C)c1=O` [Example 171, 5-(3-isopropyl-5-(1-(oxetan-3-yl)piperidin-4-yl)-1H-indol-2-yl)-1,3-dimethylpyridin-2(1H)-one] are 0.0051 µM, 0.0104 µM and 25.2 µM.
Regarding `Cc1cc(-c2[nH]c3ccc(C4CCN(C(=O)C[C@H]5CCCN5)CC4)cc3c2C(C)C)cn(C)c1=O` [Example 306, (R)-5-(3-isopropyl-5-(1-(2-(pyrrolidin-2-yl)acetyl)piperidin-4-yl)-1H-indol-2-yl)-1,3-dimethylpyridin-2(1H)-one], the IC50 in assay [1] is 0.0165 µM; in assay [2], 0.0269 µM; in assay [3], 0.547 µM.
For `COc1cc(-c2[nH]c3ccc(C4CCN(CC(=O)N(C)C)CC4)cc3c2C(C)C)cn(C)c1=O` [Example 128, 2-(4-(3-isopropyl-2-(5-methoxy-1-methyl-6-oxo-1,6-dihydropyridin-3-yl)-1H-indol-5-yl)piperidin-1-yl)-N,N-dimethylacetamide], the IC50 worked out at 0.003 µM in assay [1], 0.0057 µM in assay [2] and 0.977 µM in assay [3].
